Experimental data published in patent publication US20250352500A1, “USE OF PHENOLIC ACIDS DERIVATIVES IN TREATING ISCHEMIC STROKE” (LANZHOU UNIVERSITY, priority 2022, published 2025).

Experiments:
Type in all cases: in vivo, male C57/BL mice
MCAO model mice = test: Rotating rod (balance rod) test of motor coordination after ischemia-reperfusion
Procedure: (§1) Grouping and administration method: Male C57/BL mice weighing 23±1 g were randomly divided into sham operation group (SHAM), model group (MCAO), compound 2 group (100 mg/kg), and compound 1 group (50 mg/kg), with 10 mice in each group. Mice in the SHAM group underwent vascular isolation, but no […] was administered, and no treatment was given before or after surgery. The model group mice were constructed with MCAO models and were not treated before and after surgery. The treatment group was treated with compound 2 or compound 1 on the basis of the model group. Mice with a neurological score of 0 after reperfusion and those that died before 72 hours post-surgery were excluded. The administration time for animal behavior tests was seven times at 0 h, 1 day, 2 days, 3 days, 4 days, 5 days, and 6 days after reperfusion, while the administration time for other experiments was three times at 0 h, 1 day, and 2 days after reperfusion. The drug was administered through the tail vein, and the sham operation group and model group were given equal amounts of saline.
The balance rod test was used to test the motor coordination of mice. The experiment was divided into four groups: sham operation group (SHAM), model group (MCAO), compound 2 group and compound 1 group. The effects of compound 2 on the recovery of behavioral function in mice after ischemia-reperfusion were comprehensively analyzed. The rotating rod test can test the motor coordination ability of mice. The experimental procedure is set to gradually accelerate the speed of the rotating rod from 10 rpm to 40 rpm within 300 seconds. Record the time that the mouse stays on the rotating stick. The mice were trained 3 days in advance. Select mice that can stay on the rotating rod for about 300 seconds for the next experiment. The time that the mice spent on the rotating rod before the model was constructed was selected as the pre-operative test value. The trained mice were subjected to MCA occlusion for 60 minutes and then reperfusion. Mice in the SHAM group, MCAO group, Compound 2 group, and Compound 1 group underwent rotating rod testing on days 1, 3, 5, and 7 post-surgeries, respectively, and the duration of their stay on the rotating rod was recorded.
After reperfusion for 1 to 3 days, the motor coordination ability continued to decline, but gradually recovered after 3 days, but the degree of recovery was extremely low.

GFAP = GFAP immunofluorescence in brain tissue (astrocytes); settings: 72 h ischemia-reperfusion, three days of administration; compound 2 100 mg/kg, compound 1 50 mg/kg; MCAO group 481±67; mean±SEM, n=3
Procedure: as §1, with “The administration time for animal behavior tests was seven times at 0 h, 1 day, 2 days, 3 days, 4 days, 5 days, and 6 days after reperfusion, while the administration time for other experiments was three times at 0 h, 1 day, and 2 days after reperfusion. The drug was administered through the tail vein, and the sham operation group and model group were given equal amounts of saline.” left out
To investigate whether compound 2 has an effect on the activation and proliferation of astrocytes during ischemia-reperfusion, this study used immunofluorescence experiments to observe and detect the fluorescence expression of GFAP in brain tissues from the sham operation group, model group, compound 2 group, and compound 1 group. […] After 72 hours of ischemia-reperfusion, the activation and proliferation of GFAP protein in astrocytes in the brain region were analyzed by immunofluorescence staining. […]

iba1 = iba1 protein Western blot in brain tissue; settings: for iba1 protein expression reduced compared with MCAO group: three days of administration, compound 2 100 mg/kg, compound 1 50 mg/kg
Procedure: as §1
The expression level of the specific protein iba1 in microglia in brain tissues was detected by Western blot. (A) The representative WB images of iba1 protein expression in brain tissues of the sham operation group (SHAM), model group (MCAO), compound 2 group, and compound 1 group are shown in FIG. 8A, and the quantitative statistical results are shown in FIG. 8B. […] Compared with the MCAO group, the expression of iba1 protein decreased three days after administration of compound 1. Compared with the compound 1 group, the expression level of iba1 protein in the compound 2 group decreased. In this experiment, β-actin was used as the internal reference protein. n=3, data are presented as mean±SEM, analyzed with one-way ANOVA, and subjected to Tukey's HSD test. *P<0.05, **P<0.01, ***P<0.001. ^#P<0.05, ^##P<0.01, ^###P<0.001. * indicates comparison with the SHAM group, ^# indicates a comparison with the Compound 2 group.

TNF-α = test: ELISA of TNF-α in brain homogenate; settings: 72 h, three days of administration, compound 2 100 mg/kg, compound 1 50 mg/kg
Procedure: as §1, with “The administration time for animal behavior tests was seven times at 0 h, 1 day, 2 days, 3 days, 4 days, 5 days, and 6 days after reperfusion, while the administration time for other experiments was three times at 0 h, 1 day, and 2 days after reperfusion. The drug was administered through the tail vein, and the sham operation group and model group were given equal amounts of saline.” left out
To investigate the effect of compounds on the expression of inflammatory factors after ischemia-reperfusion, this study used immunofluorescence experiments to observe the expression of TNF-α, IL-1β, IL-6, iNOS, and COX2 proteins in brain tissue. […] The concentrations of TNF-α, IL-1β, and IL-6 in brain homogenate were detected by enzyme-linked immunosorbent assay (ELISA), and the expression level of TNF-α protein in brain tissue was detected by Western blot.
After 72 hours of ischemia-reperfusion, the expression levels of inflammatory factors TNF-α, IL-1β, and IL-6 in the mouse brain homogenate were detected.

HIF-1α = HIF-1α protein Western blot in brain tissue; settings: 72 h; for HIF-1α protein expression reduced compared with MCAO model group: three days of administration, compound 2 100 mg/kg, compound 1 50 mg/kg
Procedure: as §1
HIF-1α is a sensitive regulator of oxygen homeostasis, rapidly inducing its expression after hypoxia-ischemia. It plays a wide range of roles in the pathophysiology of stroke, including neuronal survival, neuroinflammation, angiogenesis, glucose metabolism, and blood-brain barrier regulation. It can not only produce specific sensations in the case of hypoxia, but also facilitate the maintenance of oxygen homeostasis in the body. […]
After 72 hours of ischemia-reperfusion, the expression level of HIF-1α protein in brain tissue was detected by Western blot. […] In this experiment, β-actin was used as the internal reference protein. n=3, data are mean±SEM, analyzed using one-way ANOVA and Tukey's HSD test. *P<0.05, **P<0.01, ***P<0.001. ^#P<0.05, ^##P<0.01, ^###P<0.001. * indicates a comparison with the SHAM group, ^# indicates a comparison with the compound 2 group.

[1] = compound 2 100 mg/kg vs compound 1 50 mg/kg

Compound | Motor coordination ability (time on rotating rod) compared with MCAO group (MCAO model mice; compound 1 50 mg/kg tail vein, time not stated) | Number of GFAP-positive cells (GFAP) | iba1 protein expression reduced compared with MCAO group (iba1) | Decrease in TNF-α expression compared with MCAO group (TNF-α) | HIF-1α protein expression reduced compared with MCAO model group (HIF-1α) [%] | Motor coordination ability (time on rotating rod) compared with model group (MCAO) (MCAO model mice; at 5 and 7 days, compound 2 100 mg/kg tail vein, P<0.05) | Motor coordination (time on rotating rod) compared with model group (MCAO) (MCAO model mice; at 7 days of reperfusion, compound 2 100 mg/kg tail vein, P<0.001) | Motor coordination ability (time on rotating rod) compared with the compound 1 group (MCAO model mice; compound 2 100 mg/kg vs compound 1 50 mg/kg, P<0.001) | iba1 protein expression level compared with the compound 1 group (iba1; [1]) | HIF-1α protein expression level compared with the compound 1 group (HIF-1α; [1])
O=C(O)c1cc(O)ccc1O [compound 1] | improved | 327±50 /mm^2 | decreased | reduced to varying degrees | 46±10 |  |  |  |  | 
O=C(O)c1cc(OP(=O)(O)O)ccc1OP(=O)(O)O [compound 2] |  | 195±45 /mm^2 | 50±12% | 40±10% | 53±10 | significantly improved | significantly improved | significantly improved | decreased | significantly reduced
